Measurements from patent publication US6410558B1, “Fungicides for the control of take-all disease of plants” (Monsanto Technology LLC, priority 1991, dated 2002).

How the values were obtained:
[1] = tested on: Gaeumannomyces graminis var. tritici (Ggt); assay: In vitro Assay: mycelial growth of Ggt on minimal media agar plates containing test compound; format: cell-based; details: dark, 19-20° C., 4 to 5 days, diameter of mycelial growth; for In vitro (ppm) 0.1, Percent Inhibition / inhibition at 0.1 ppm: 0.1 ppm in minimal media agar; for In vitro (ppm) 1, Percent Inhibition / inhibition at 1 ppm: 1 ppm in minimal media agar; for In vitro (ppm) 10, Percent Inhibition / inhibition at 10 ppm: 10 ppm in minimal media agar; for inhibition at 0.1 ppm / inhibition at 1 ppm / inhibition at 10 ppm: Gaeumannomyces graminis; for inhibition at 0.1 ppm: read-out: In vitro (ppm) 0.1, Percent Inhibition; for inhibition at 1 ppm: read-out: In vitro (ppm) 1, Percent Inhibition; for inhibition at 10 ppm: read-out: In vitro (ppm) 10, Percent Inhibition
Outline: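 Compounds added from acetone stock into minimal (Czapek Dox) agar; plates inoculated with three 4-mm Ggt plugs, incubated in dark at 19-20° C for 4 to 5 days. Colony diameter measured; Percent Inhibition = [1-((treated mm −4)/(control mm −4))]×100.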

Ggt = assay: In vivo Assay: control of Ggt on wheat grown in pots of Ggt-infested soil, root disease rating; parameters: species or system Gaeumannomyces graminis var. tritici; details: 0.5 mg active ingredient per pot, 'Bergen' or 'Anza' wheat in Ggt-infested soil, after four weeks, vs untreated control; for pest or weed control at 0.5 mg/pot: Gaeumannomyces graminis, 672 h, read-out: In vivo, percent disease control
Description: Compounds are tested for control of Ggt on ‘Bergen’ or ‘Anza’ varieties of wheat grown in 3-inch square pots containing soil infested with Ggt. The infestation is accomplished by mixing the soil with an inoculum prepared by growing Ggt on ¼ strength potato dextrose agar (4.875 g potato dextrose agar, 5.0 g Bacto agar, 500 mL distilled, deionized water) in plates and using plugs from the plates to infest sterile oats (400 cc whole oats, 350 mL deionized water, autoclaved). After a one-month incubation period at room temperature, the oats are dried and mixed with the soil at 4% v/v. Four wheat seeds are placed on top of the soil in each pot. The test compounds are prepared as an 1:9 acetone/water v/v solution containing 0.18% Tween® 20 to provide a treatment rate of 0.5 mg active ingredient per pot, treated with 3 mL test solution per pot. Five pots are used for each treatment level and the controls, which are untreated, inoculated and non-inoculated pots. After one hour drying time, the seeds are covered with more of the appropriate soil and a layer of vermiculite. The pots are placed in a growth chamber and watered each day. After four weeks, each pot is evaluated for evidence of disease by examination of the seminal roots of each plant under a dissecting microscope. A 0 to 5 rating scale having the following meanings is used:
0=no runner hyphae or lesions present
1=runner hyphae and a few small lesions present on <10% of root system
2=runner hyphae and small lesions present on 10-25% of root system
3=runner hyphae and lesions present on 25-50% of root system
4=runner hyphae and many, large, coalescing lesions on >50% of root system
5=root system and culm completely inundated with lesions and runner hyphae
From each set of five replicates a high and low score is eliminated and a replicate mean is calculated by the average of the remaining three scores. This mean score is then compared to the untreated control score and a percent disease control is calculated.

For “2-N,N-dipropyl-6-(trimethylsilyl)benzamide [Example 14]”, the “In vitro (ppm) 0.1, Percent Inhibition” value [1] was 7%, the “In vitro (ppm) 1, Percent Inhibition” value [1] was 40% and the “In vitro (ppm) 10, Percent Inhibition” value [1] was 79%. For the same molecule, the “In vivo, percent disease control” value (Ggt) was 92%.

Work on `CCN(CC)C(=O)c1c(C)ccc(F)c1[Si](C)(C)C` [Example 1, N,N-Diethyl-3-fluoro-6-methyl-2-(trimethylsilyl)benzamide] yielded an inhibition at 0.1 ppm [1] of 6%, an inhibition at 1 ppm [1] of 53% and an inhibition at 10 ppm [1] of 74%. It also gave a pest or weed control at 0.5 mg/pot (Ggt) of 91%.

In the case of `CCN(CC)C(=O)c1ccccc1[Si](C)(C)C` [Example 2, N,N-Diethyl-2-(trimethylsilyl)benzamide], the inhibition at 0.1 ppm [1] is reported as 14%, the inhibition at 1 ppm [1] is reported as 36% and the inhibition at 10 ppm [1] is reported as 72%. For the same molecule, the pest or weed control at 0.5 mg/pot (Ggt) was 74%.

`CCN(CC)C(=O)c1c(C)cccc1[Si](C)(C)C` [Example 3, N,N-Diethyl-2-methyl-6-(trimethylsilyl)benzamide] gave an inhibition at 0.1 ppm [1] of 19%, an inhibition at 1 ppm [1] of 58% and an inhibition at 10 ppm [1] of 75%. It also gave a pest or weed control at 0.5 mg/pot (Ggt) of 100%.

With `CCN(CC)C(=O)c1cccc(F)c1[Si](C)(C)C` [Example 4, N,N-Diethyl-3-fluoro-2-(trimethylsilyl)benzamide] the inhibition at 0.1 ppm [1] was < 0%, the inhibition at 1 ppm [1] was < 0% and the inhibition at 10 ppm [1] was 57%. The pest or weed control at 0.5 mg/pot (Ggt) was 54%.

`CN(C(=O)c1cccc(F)c1[Si](C)(C)C)C(C)(C)C` [Example 5, N-(1,1-Dimethylethyl)-3-fluoro-N-methyl-2-(trimethylsilyl)benzamide] was tested, and the inhibition at 0.1 ppm [1] was < 0%, the inhibition at 1 ppm [1] was < 0% and the inhibition at 10 ppm [1] was 29%. It also gave a pest or weed control at 0.5 mg/pot (Ggt) of 24%.

In the case of `CCN(CC)C(=O)c1c(C)cccc1C(C)(C)C` [Example 6, 2-(1,1-Dimethylethyl)-N,N-diethyl-6-methylbenzamide], the inhibition at 0.1 ppm [1] is reported as 7%, the inhibition at 1 ppm [1] is reported as 2% and the inhibition at 10 ppm [1] is reported as 47%. For the same molecule, the pest or weed control at 0.5 mg/pot (Ggt) was 37%.

With `C[Si](C)(C)c1cc(Cl)sc1C(=O)NCCCl` [Example 264, 5-Chloro-N-(2-chloroethyl)-3-(trimethylsilyl)-2-thiophenecarboxamide] the inhibition at 0.1 ppm [1] was 2%, the inhibition at 1 ppm [1] was 88% and the inhibition at 10 ppm [1] was 100%.

Work on `C[Si](C)(C)c1cc(Cl)sc1C(=O)NCCOS(C)(=O)=O` [Example 265, 5-Chloro-N-[2[(methylsulfonyl)oxy]ethyl]-3-(trimethylsilyl)-2-thiophenecarboxamide] yielded an inhibition at 0.1 ppm [1] of 5%, an inhibition at 1 ppm [1] of 14% and an inhibition at 10 ppm [1] of 100%.

For `CCNC(=O)c1c(Br)csc1[Si](C)(C)C` [Example 267, 4-Bromo-N-ethyl-2-(trimethylsilyl)-3-thiophenecarboxamide], the inhibition at 0.1 ppm [1] was 18%, the inhibition at 1 ppm [1] was 64% and the inhibition at 10 ppm [1] was 61%.

For `CCNC(=O)c1cc(Br)sc1[Si](C)(C)C` [Example 268, 5-Bromo-N-ethyl-2-(trimethylsilyl)-3-thiophenecarboxamide], the inhibition at 0.1 ppm [1] was < 0%, the inhibition at 1 ppm [1] was < 0% and the inhibition at 10 ppm [1] was 100%.

In the case of `C=CCN(SC)C(=O)c1sc(Cl)cc1[Si](C)(C)C` [Example 273, 5-Chloro-N-(methylthio)-N-2-propenyl-3-(trimethylsilyl)-2-thiophenecarboxamide], the inhibition at 0.1 ppm [1] is reported as 35%, the inhibition at 1 ppm [1] is reported as 48% and the inhibition at 10 ppm [1] is reported as 100%.

`CCNC(=O)c1sc2c(c1[Si](C)(C)C)CCCC2` [Example 274, N-Ethyl-3-(trimethylsilyl)-4,5,6,7-tetrahydrobenzo[B]thiophene-2-carboxamide] was tested, and the inhibition at 0.1 ppm [1] was < 0%, the inhibition at 1 ppm [1] was 10% and the inhibition at 10 ppm [1] was 67%.

`CCNC(=O)c1cc(NC)ccc1[Si](C)(C)C` [Example 275, N-Ethyl-5-(methylamino)-2-(trimethylsilyl)benzamide] showed an inhibition at 0.1 ppm [1] of 22%, an inhibition at 1 ppm [1] of 81% and an inhibition at 10 ppm [1] of 94%.

`CCNC(=O)c1c([Si](C)(C)C)ccc(C#C[Si](C)(C)C)c1Cl` [Example 276, 2-Chloro-N-ethyl-6-(trimethylsilyl)-3-[(trimethylsilyl)ethynyl]benzamide] was tested, and the inhibition at 0.1 ppm [1] was < 0%, the inhibition at 1 ppm [1] was 63% and the inhibition at 10 ppm [1] was 84%.

With `C=Cc1ccc([Si](C)(C)C)c(C(=O)NCC)c1Cl` [Example 277, 2-Chloro-3-ethenyl-N-ethyl-6-(trimethylsilyl)benzamide] the inhibition at 0.1 ppm [1] was 69%, the inhibition at 1 ppm [1] was 81% and the inhibition at 10 ppm [1] was 94%.

With `CCOP(=O)(OCC)N(CC)C(=O)c1c(Cl)cccc1[Si](C)(C)C` [Example 278, [2-Chloro-6-(trimethylsilyl)benzoyl]ethylphosphoramidic acid, diethyl ester] the inhibition at 0.1 ppm [1] was < 0%, the inhibition at 1 ppm [1] was 50% and the inhibition at 10 ppm [1] was 75%.

For `CCN(CSC)C(=O)c1c(Cl)cccc1[Si](C)(C)C` [Example 279, 2-Chloro-N-ethyl-N-[(methylthio)methyl]-6-(trimethylsilyl)benzamide], the inhibition at 0.1 ppm [1] was < 0%, the inhibition at 1 ppm [1] was < 0% and the inhibition at 10 ppm [1] was 47%.

In the case of `CCNC(=O)c1c(F)cccc1S(=O)(=O)C(C)(C)C` [Example 280, 2-[(1,1-Dimethylethyl)sulfonyl]-N-ethyl-6-fluorobenzamide], the inhibition at 0.1 ppm [1] is reported as 24%, the inhibition at 1 ppm [1] is reported as 21% and the inhibition at 10 ppm [1] is reported as 38%.

For `CCN(CC)C(=O)c1c(Cl)cccc1N(C)C(C)(C)C` [Example 281, 2-Chloro-6-[(1,1-dimethylethyl)methylamino]-N,N-(diethyl)benzamide], the “In vitro (ppm) 0.1, Percent Inhibition” value [1] was 4%, the “In vitro (ppm) 1, Percent Inhibition” value [1] was “N (If the calculation resulted in “0” or less, as compared to the untreated control, a “N” is shown to indicate no control.)” and the “In vitro (ppm) 10, Percent Inhibition” value [1] was 43%.

With `CCNC(=O)c1nc(Cl)sc1[Si](C)(C)C` [Example 282, 2-Chloro-N-ethyl-5-(trimethylsilyl)-4-thiazolecarboxamide] the inhibition at 0.1 ppm [1] was 3%, the inhibition at 1 ppm [1] was 15% and the inhibition at 10 ppm [1] was 78%.

With `CCNC(=O)C1=CSC(Cl)N1[Si](C)(C)C` (stereo not shown) [Example 283, 2-Chloro-N-ethyl-3-(trimethylsilyl)-4-thiazolecarboxamide] the inhibition at 0.1 ppm [1] was < 0%, the inhibition at 1 ppm [1] was 3% and the inhibition at 10 ppm [1] was 42%.

`CCNC(=O)n1nccc1[Si](C)(C)C` [Example 284, N-Ethyl-5-(trimethylsilyl)-1H-pyrazole-1-carboxamide] gave an inhibition at 0.1 ppm [1] of 23%, an inhibition at 1 ppm [1] of 35% and an inhibition at 10 ppm [1] of 91%.

With `CCNC(=O)c1c(Cl)cccc1C(C)(C)C` [Example 285, 2-Chloro-N-ethyl-6-(1,1-dimethylethyl)benzamide] the inhibition at 0.1 ppm [1] was < 0%, the inhibition at 1 ppm [1] was 50% and the inhibition at 10 ppm [1] was 75%.

In the case of `CCNC(=O)c1sc(C)c(C)c1[Si](C)(C)C` [Example 286, 4,5-Dimethyl-N-ethyl-3-(trimethylsilyl)-2-thiophenecarboxamide], the inhibition at 0.1 ppm [1] is reported as 76%, the inhibition at 1 ppm [1] is reported as 93% and the inhibition at 10 ppm [1] is reported as 100%.

`CC(C)N(O)C(=O)c1sc(Cl)cc1[Si](C)(C)C` [Example 287, 5-Chloro-N-hydroxy-N-(1-methylethyl)-3-(trimethylsilyl)-2-thiophenecarboxamide] gave an inhibition at 0.1 ppm [1] of 64%, an inhibition at 1 ppm [1] of 71% and an inhibition at 10 ppm [1] of 78%.

With `CCNC(=O)c1cnn(C)c1[Si](C)(C)C` [Example 288, N-Ethyl-1-methyl-5-(trimethylsilyl)-1H-pyrazole-4-carboxamide] the inhibition at 0.1 ppm [1] was < 0%, the inhibition at 1 ppm [1] was < 0% and the inhibition at 10 ppm [1] was 53%.
